These results are taken from patent US20140315936A1, “AP[…] PI COMBINATION THERAPY” (AVEXA LIMITED, priority 2011, published 2014).

Structures are written as SMILES. Like-named read-outs stand apart in the source and are kept apart here.

This assay has as its system HIV-1. The note with it: as part of an optimized regimen, plasma HIV-1 RNA. The procedure:
Groups of HIV-1 positive patients were treated (as part of an optimized regimen) with ATC+either LPV or ATV, and compared to patients treated with 3TC+either LPV or ATV. Samples were taken after therapy to determine the number of patients who achieved an undetectable plasma HIV-1 RNA level (<50 copies/mL).

With `Cc1cccc(C)c1OCC(=O)N[C@@H](Cc1ccccc1)[C@@H](O)C[C@H](Cc1ccccc1)NC(=O)[C@H](C(C)C)N1CCCNC1=O` [LPV, Lopinavir], the “Patients achieving <50 copies/mL, %” value runs as follows: (combined with 150 mg BID 3TC) 62%; (combined with 800 mg BID ATC) 60%. Moreover, the “Patients achieving <50 copies/mL, n/N” value (combined with 150 mg BID 3TC) is on record as 18/29 and the “Patients achieving <50 copies/mL, n/N” value (combined with 800 mg BID ATC) is given as 18/30.

`COC(=O)N[C@H](C(=O)N[C@@H](Cc1ccccc1)[C@@H](O)CN(Cc1ccc(-c2ccccn2)cc1)NC(=O)[C@@H](NC(=O)OC)C(C)(C)C)C(C)(C)C` [ATV, methyl N-[(1S)-1-{[(2S,3S)-3-hydroxy-4-[(2S)-2-[(methoxycarbonyl)amino]-3,3-dimethyl-N′-{[4-(pyridin-2-yl)phenyl]methyl}butanehydrazido]-1-phenylbutan-2-yl]carbamoyl}-2,2-dimethylpropyl]carbamate]: where the note is “combined with 150 mg BID 3TC”, the “Patients achieving <50 copies/mL, %” value stood at 42.9% and the “Patients achieving <50 copies/mL, n/N” value is on record as 6/14. Also, for the setting “combined with 800 mg BID ATC”, the “Patients achieving <50 copies/mL, %” value was found to be 66.7% and the “Patients achieving <50 copies/mL, n/N” value was 8/12.
